From patent US20230277534A1 (Plexxikon Inc., priority 2011, published 2023)

Experiments:
B-Raf V600E = B-Raf V600E (Homo sapiens (Human), UniProt P15056, V600E); assay: B-Raf V600E kinase biochemical activity assay (AlphaScreen, biotin-MEK1 substrate); details: 100 μM ATP
How it was run: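 B-Raf V600E (0.1 ng) phosphorylated 100 nM biotin-MEK1 with 100 μM ATP (final) in HEPES pH 7.0 with Mg2+/Mn2+ for 45 min at room temperature. Compounds were tested over an 8-point serial dilution. Phospho-MEK1/2 was detected by AlphaScreen after 3 h with beads, and IC50 came from signal versus concentration.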

[1] = tested on: COLO205 colon adenocarcinoma cells (B-Raf V600E mutation); assay: COLO205 cell growth inhibition (ATPlite); assay type: cell-based; details: Homo sapiens, COLO 205, 72 h, 3 days
Method: Compounds are assessed in a variety of cell based assays.
On day 1, cells are counted, then centrifuged in a conical tube for 5 minutes at 1000 rpm.
On day 2, compound at a maximum concentration of 5 mM is serially diluted 1:3 (e.g. 10 μL with 30 μL dimethyl sulfoxide) for a total of 8 point titration with DMSO as a control. A 1 μL aliquot of each dilution point and control is added to 249 μL growth media and 50 μL is added to a well containing cells, providing 10 μM compound at the maximum concentration point. The cells are incubated for 3 days at 37° C. in 5% CO2.
ATPlite is added 25 μL to each well, shake for 2 minutes, and the cells are incubated at room temperature for 10 minutes, then luminescence is read on Safire reader. The measured luminescence correlates directly with cell number, such that the reading as a function of compound concentration is used to determine the IC50 value.

B-Raf V600E, sequence (P15056 whole entry V600E): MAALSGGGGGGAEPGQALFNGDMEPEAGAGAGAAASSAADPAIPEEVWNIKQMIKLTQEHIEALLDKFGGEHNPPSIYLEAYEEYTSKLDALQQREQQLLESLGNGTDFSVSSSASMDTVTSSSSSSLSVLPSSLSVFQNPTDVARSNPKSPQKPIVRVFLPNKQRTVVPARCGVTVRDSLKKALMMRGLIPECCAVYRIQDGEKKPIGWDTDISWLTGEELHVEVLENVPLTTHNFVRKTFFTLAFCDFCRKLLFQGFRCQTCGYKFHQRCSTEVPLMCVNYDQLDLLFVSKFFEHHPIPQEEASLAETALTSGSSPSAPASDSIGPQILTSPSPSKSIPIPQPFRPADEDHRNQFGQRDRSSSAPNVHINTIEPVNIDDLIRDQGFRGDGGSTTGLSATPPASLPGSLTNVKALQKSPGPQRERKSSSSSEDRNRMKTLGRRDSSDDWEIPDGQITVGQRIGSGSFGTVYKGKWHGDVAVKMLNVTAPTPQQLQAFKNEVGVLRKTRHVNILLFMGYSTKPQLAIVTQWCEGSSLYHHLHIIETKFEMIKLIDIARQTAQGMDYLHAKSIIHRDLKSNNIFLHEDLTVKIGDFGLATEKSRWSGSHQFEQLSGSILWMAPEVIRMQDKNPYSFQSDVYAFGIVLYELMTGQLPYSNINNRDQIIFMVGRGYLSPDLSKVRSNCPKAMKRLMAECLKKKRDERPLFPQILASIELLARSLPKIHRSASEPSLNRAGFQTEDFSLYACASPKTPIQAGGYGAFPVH

## CN(C)S(=O)(=O)Nc1cccc(C(=O)c2c[nH]c3ncc(-c4cnc(N5CCCC5)nc4)cc23)c1F [Compound P-0107, 3-[3-(dimethylsulfamoylamino)-2-fluoro-benzoyl]-5-(2-pyrrolidin-1-ylpyrimidin-5-yl)-1H-pyrrolo[2,3-b]pyridine]
B-Raf V600E
  IC50: < 0.1 µM
[1]
  IC50: < 1 µM

## O=C(c1cccc(NS(=O)(=O)N2CCCC2)c1F)c1c[nH]c2ncc(-c3cnc(N4CCCC4)nc3)cc12 [Compound P-0109, N-[2-fluoro-3-[5-(2-pyrrolidin-1-ylpyrimidin-5-yl)-1H-pyrrolo[2,3-b]pyridine-3-carbonyl]phenyl]pyrrolidine-1-sulfonamide]
B-Raf V600E
  IC50: < 0.1 µM
[1]
  IC50: < 1 µM

## CN(C)S(=O)(=O)Nc1cccc(C(=O)c2c[nH]c3ncc(I)cc23)c1F [Compound P-0110, 3-[3-(dimethylsulfamoylamino)-2-fluoro-benzoyl]-5-iodo-1H-pyrrolo[2,3-b]pyridine]
B-Raf V600E
  IC50: < 0.1 µM
[1]
  IC50: < 1 µM

## CCCN(C)S(=O)(=O)Nc1cccc(C(=O)c2c[nH]c3ncc(-c4cnc(C)nc4)cc23)c1F [Compound P-0111, 3-[2-fluoro-3-[[methyl(propyl)sulfamoyl]amino]benzoyl]-5-(2-methylpyrimidin-5-yl)-1H-pyrrolo[2,3-b]pyridine]
B-Raf V600E
  IC50: < 0.1 µM
[1]
  IC50: < 1 µM

## Cc1ncc(-c2cnc3[nH]cc(C(=O)c4cccc(NS(=O)(=O)N(C)CC5CC5)c4F)c3c2)cn1 [Compound P-0112, 3-[3-[[cyclopropylmethyl(methyl)sulfamoyl]amino]-2-fluoro-benzoyl]-5-(2-methylpyrimidin-5-yl)-1H-pyrrolo[2,3-b]pyridine]
B-Raf V600E
  IC50: < 0.1 µM
[1]
  IC50: < 1 µM

## CN(C)S(=O)(=O)Nc1cccc(C(=O)c2c[nH]c3ncc(-c4ccc(C5CC5)nc4)cc23)c1F [Compound P-0113, 5-(6-cyclopropyl-3-pyridyl)-3-[3-(dimethylsulfamoylamino)-2-fluoro-benzoyl]-1H-pyrrolo[2,3-b]pyridine]
B-Raf V600E
  IC50: < 0.1 µM
[1]
  IC50: < 1 µM

## CCCN(C)S(=O)(=O)Nc1cccc(C(=O)c2c[nH]c3ncc(-c4ccc(C5CC5)nc4)cc23)c1F [Compound P-0114, 5-(6-cyclopropyl-3-pyridyl)-3-[2-fluoro-3-[[methyl(propyl)sulfamoyl]amino]benzoyl]-1H-pyrrolo[2,3-b]pyridine]
B-Raf V600E
  IC50: < 0.1 µM
[1]
  IC50: < 1 µM

## CN(CC1CC1)S(=O)(=O)Nc1cccc(C(=O)c2c[nH]c3ncc(-c4ccc(C5CC5)nc4)cc23)c1F [Compound P-0115, 3-[3-[[cyclopropylmethyl(methyl)sulfamoyl]amino]-2-fluoro-benzoyl]-5-(6-cyclopropyl-3-pyridyl)-1H-pyrrolo[2,3-b]pyridine]
B-Raf V600E
  IC50: < 0.1 µM
[1]
  IC50: < 1 µM

## CCCN(C)S(=O)(=O)Nc1ccc(F)c(C(=O)c2c[nH]c3ncc(-c4cnc(OC)nc4)cc23)c1F [Compound P-0116, 3-[2,6-difluoro-3-[[methyl(propyl)sulfamoyl]amino]benzoyl]-5-(2-methoxypyrimidin-5-yl)-1H-pyrrolo[2,3-b]pyridine]
B-Raf V600E
  IC50: < 0.1 µM
[1]
  IC50: < 1 µM

## CCCNS(=O)(=O)Nc1cccc(C(=O)c2c[nH]c3ncc(I)cc23)c1F [Compound P-0117, [2-fluoro-3-(propylsulfamoylamino)phenyl]-(5-iodo-1H-pyrrolo[2,3-b]pyridin-3-yl)methanone]
B-Raf V600E
  IC50: > 0.1 µM
[1]
  IC50: > 1 µM

## CCC(C)S(=O)(=O)Nc1cccc(C(=O)c2c[nH]c3ncc(-c4cnc(OC)nc4)cc23)c1F (stereo not drawn) [Compound P-0224, N-[2-fluoro-3-[5-(2-methoxypyrimidin-5-yl)-1H-pyrrolo[2,3-b]pyridine-3-carbonyl]phenyl]butane-2-sulfonamide]
B-Raf V600E
  IC50: < 0.1 µM
[1]
  IC50: < 1 µM

## CCC(C)S(=O)(=O)Nc1cccc(C(=O)c2c[nH]c3ncc(-c4cnc(N5CCCC5)nc4)cc23)c1F (stereo not drawn) [Compound P-0225, N-[2-fluoro-3-[5-(2-pyrrolidin-1-ylpyrimidin-5-yl)-1H-pyrrolo[2,3-b]pyridine-3-carbonyl]phenyl]butane-2-sulfonamide]
B-Raf V600E
  IC50: < 0.1 µM
[1]
  IC50: < 1 µM

## CCC(C)S(=O)(=O)Nc1cccc(C(=O)c2c[nH]c3ncc(-c4cnc(NC5CC5)nc4)cc23)c1F (stereo not drawn) [Compound P-0226, N-[3-[5-[2-(cyclopropylamino)pyrimidin-5-yl]-1H-pyrrolo[2,3-b]pyridine-3-carbonyl]-2-fluoro-phenyl]butane-2-sulfonamide]
B-Raf V600E
  IC50: < 0.1 µM
[1]
  IC50: < 1 µM

## CCC(C)S(=O)(=O)Nc1cccc(C(=O)c2c[nH]c3ncc(-c4ccc(C5(C#N)CC5)cc4)cc23)c1F (stereo not drawn) [Compound P-0227, N-[3-[5-[4-(1-cyanocyclopropyl)phenyl]-1H-pyrrolo[2,3-b]pyridine-3-carbonyl]-2-fluoro-phenyl]butane-2-sulfonamide]
B-Raf V600E
  IC50: < 0.1 µM
[1]
  IC50: < 1 µM

## CCC(C)S(=O)(=O)Nc1cccc(C(=O)c2c[nH]c3ncc(-c4cnc(C(C)C)nc4)cc23)c1F (stereo not drawn) [Compound P-0229, N-[2-fluoro-3-[5-(2-isopropylpyrimidin-5-yl)-1H-pyrrolo[2,3-b]pyridine-3-carbonyl]phenyl]butane-2-sulfonamide]
B-Raf V600E
  IC50: < 0.1 µM
[1]
  IC50: < 1 µM

## CCC(C)S(=O)(=O)Nc1cccc(C(=O)c2c[nH]c3ncc(-c4ccc(N(C)C)nc4)cc23)c1F (stereo not drawn) [Compound P-0230, N-[3-[5-[6-(dimethylamino)-3-pyridyl]-1H-pyrrolo[2,3-b]pyridine-3-carbonyl]-2-fluoro-phenyl]butane-2-sulfonamide]
B-Raf V600E
  IC50: < 0.1 µM
[1]
  IC50: < 1 µM

## CCC(C)S(=O)(=O)Nc1cccc(C(=O)c2c[nH]c3ncc(-c4cnc(C)nc4)cc23)c1F (stereo not drawn) [Compound P-0231, N-[2-fluoro-3-[5-(2-methylpyrimidin-5-yl)-1H-pyrrolo[2,3-b]pyridine-3-carbonyl]phenyl]butane-2-sulfonamide]
B-Raf V600E
  IC50: < 0.1 µM
[1]
  IC50: < 1 µM

## O=C(c1cccc(NS(=O)(=O)N2CCCC2)c1F)c1c[nH]c2ncc(-c3cnc(N4CCOCC4)nc3)cc12 [Compound P-0235, N-[2-fluoro-3-[5-(2-morpholinopyrimidin-5-yl)-1H-pyrrolo[2,3-b]pyridine-3-carbonyl]phenyl]pyrrolidine-1-sulfonamide]
B-Raf V600E
  IC50: < 0.1 µM
[1]
  IC50: < 1 µM

## CCC(C)S(=O)(=O)Nc1cccc(C(=O)c2c[nH]c3ncc(-c4cnc(N5CCOCC5)nc4)cc23)c1F (stereo not drawn) [Compound P-0236, N-[2-fluoro-3-[5-(2-morpholinopyrimidin-5-yl)-1H-pyrrolo[2,3-b]pyridine-3-carbonyl]phenyl]butane-2-sulfonamide]
B-Raf V600E
  IC50: < 0.1 µM
[1]
  IC50: < 1 µM

## CN(C)S(=O)(=O)Nc1ccc(F)c(C(=O)c2c[nH]c3ncc(-c4cnc(C5CC5)nc4)cc23)c1F [Compound P-0238, 5-(2-cyclopropylpyrimidin-5-yl)-3-[3-(dimethylsulfamoylamino)-2,6-difluoro-benzoyl]-1H-pyrrolo[2,3-b]pyridine]
B-Raf V600E
  IC50: < 0.1 µM
[1]
  IC50: < 1 µM

## CCN(C)S(=O)(=O)Nc1ccc(F)c(C(=O)c2c[nH]c3ncc(-c4cnc(C5CC5)nc4)cc23)c1F [Compound P-0240, 5-(2-cyclopropylpyrimidin-5-yl)-3-[3-[[ethyl(methyl)sulfamoyl]amino]-2,6-difluoro-benzoyl]-1H-pyrrolo[2,3-b]pyridine]
B-Raf V600E
  IC50: < 0.1 µM
[1]
  IC50: < 1 µM
